Assay results from patent US20250186437A1, “CARBOLINE COMPOUNDS AND USE THEREOF” (PTC Therapeutics, Inc., priority 2021, published 2025).

Tested on: MOLM-13 cells
Assay: MOLM-13 Cell Proliferation Assay (indicator of DHODH inhibition)
Format: cell-based
Conditions: Homo sapiens, 72 Hours of culture, CellTiter-Glo, no uridine
Protocol: The following assay was conducted to measure proliferation of MOLM-13 cells in the presence of each compound studied. This assay was included as an indicator of DHODH inhibition, as growth of MOLM-13 cells is known to depend on synthesis of pyrimidines using the de novo pathway, which can be blocked by inhibition of DHODH. • 1. MOLM-13 cells were cultured in RPMI 1640 medium+10% Fetal Bovine Serum (FBS). Only low passage cells (<20) were used for the compound tests • 2. On day 1, Log-phase growing Molm-13 Cells were counted and diluted to 10^5 cells/mL in RPMI 1640 medium+10% FBS • 3. 100 μL of diluted MOLM-13 cells in 96 well white plates were seeded, for a final density of 10^4 cells/well. • 4. 0.5 μL of pre-diluted 200× compounds or DMSO control was added to each well. The final DMSO concentration was 0.5%. • 5. After 72 Hours of culture at 37° C., 5% CO2, the plates were taken out and cooled to RT, then 50 μL CellTiter-Glo® (Promega) was added, and the composition was mixed at RT for 10 minutes. • 6. The plates were then read by ViewLux (Speed-fast, Gain-High, Bining-1X, 5 seconds).

Structure (SMILES) | IC50 [µM]
Fc1c(Cl)ccc2[nH]c3c(c12)CCN(c1ncc(Cl)cn1)C3c1ccc(Cl)cc1 (centres unmarked) [Compound 27, 6-chloro-1-(4-chlorophenyl)-2-(5-chloropyrimidin-2-yl)-5-fluoro-2,3,4,9-tetrahydro-1H-pyrido[3,4-b]indole] | 0.0176
Cc1ccc(C2c3[nH]c4ccc(Cl)c(F)c4c3CCN2c2nccc(Cl)n2)cc1 (centres unmarked) [Compound 28, 6-chloro-2-(4-chloropyrimidin-2-yl)-5-fluoro-1-(4-methylphenyl)-2,3,4,9-tetrahydro-1H-pyrido[3,4-b]indole] | 0.0044
Fc1cc2[nH]c3c(c2cc1Cl)CCN(c1ncc(Cl)cn1)C3c1ccc(Cl)cc1 (centres unmarked) [Compound 29, 6-chloro-1-(4-chlorophenyl)-2-(5-chloropyrimidin-2-yl)-7-fluoro-2,3,4,9-tetrahydro-1H-pyrido[3,4-b]indole] | 0.0391
Fc1cnc(N2CCc3c([nH]c4cc(F)c(Cl)cc34)C2c2ccc(C3CC3)cc2)nc1 (centres unmarked) [Compound 31, 6-chloro-1-(4-cyclopropylphenyl)-7-fluoro-2-(5-fluoropyrimidin-2-yl)-2,3,4,9-tetrahydro-1H-pyrido[3,4-b]indole] | 0.0241
N#Cc1ccc(C2c3[nH]c4cc(F)c(Cl)cc4c3CCN2c2ncc(F)cn2)cc1 (centres unmarked) [Compound 32, 4-[6-chloro-7-fluoro-2-(5-fluoropyrimidin-2-yl)-2,3,4,9-tetrahydro-1H-pyrido[3,4-b]indol-1-yl]benzonitrile] | 0.0492
N#Cc1ccc(C2c3[nH]c4c(F)cc(Cl)cc4c3CCN2c2ncc(F)cn2)cc1 (centres unmarked) [Compound 33, 4-[6-chloro-8-fluoro-2-(5-fluoropyrimidin-2-yl)-2,3,4,9-tetrahydro-1H-pyrido[3,4-b]indol-1-yl]benzonitrile] | 0.121
CN(C)c1ccc(C2c3[nH]c4cc(F)c(Cl)cc4c3CCN2c2ncc(F)cn2)cn1 (centres unmarked) [Compound 34, 5-[6-chloro-7-fluoro-2-(5-fluoropyrimidin-2-yl)-2,3,4,9-tetrahydro-1H-pyrido[3,4-b]indol-1-yl]-N,N-dimethylpyridin-2-amine] | 0.0323
Fc1cnc(N2CCc3c([nH]c4cc(F)c(Cl)cc34)C2c2ccc(C(F)(F)F)cc2)nc1 (centres unmarked) [Compound 35, 6-chloro-7-fluoro-2-(5-fluoropyrimidin-2-yl)-1-[4-(trifluoromethyl)phenyl]-2,3,4,9-tetrahydro-1H-pyrido[3,4-b]indole] | 0.0432
Fc1cnc(N2CCc3c([nH]c4cc(F)c(Cl)cc34)C2c2cccc(F)c2F)nc1 (centres unmarked) [Compound 36, 6-chloro-1-(2,3-difluorophenyl)-7-fluoro-2-(5-fluoropyrimidin-2-yl)-2,3,4,9-tetrahydro-1H-pyrido[3,4-b]indole] | 0.0234
Fc1cnc(N2CCc3c([nH]c4cc(F)c(Cl)cc34)C2c2ccc(F)c(F)c2)nc1 (centres unmarked) [Compound 37, 6-chloro-1-(3,4-difluorophenyl)-7-fluoro-2-(5-fluoropyrimidin-2-yl)-2,3,4,9-tetrahydro-1H-pyrido[3,4-b]indole] | 0.0896
Cc1ccnc(N2CCc3c([nH]c4cc(F)c(Cl)cc34)C2c2ccc(Cl)cc2)n1 (centres unmarked) [Compound 38, 6-chloro-1-(4-chlorophenyl)-7-fluoro-2-(4-methylpyrimidin-2-yl)-2,3,4,9-tetrahydro-1H-pyrido[3,4-b]indole] | 0.0243
Fc1cc2[nH]c3c(c2cc1Cl)CCN(c1nccc(Cl)n1)C3c1ccc(Cl)cc1 (centres unmarked) [Compound 39, 6-chloro-1-(4-chlorophenyl)-2-(4-chloropyrimidin-2-yl)-7-fluoro-2,3,4,9-tetrahydro-1H-pyrido[3,4-b]indole] | 0.0103
N#Cc1ccnc(N2CCc3c([nH]c4cc(F)c(Cl)cc34)C2c2ccc(Cl)cc2)n1 (centres unmarked) [Compound 40, 2-[6-chloro-1-(4-chlorophenyl)-7-fluoro-1,3,4,9-tetrahydro-2H-pyrido[3,4-b]indol-2-yl]pyrimidine-4-carbonitrile] | 0.0224
Cc1ccc(C2c3[nH]c4cc(F)c(Cl)cc4c3CCN2c2ncc(Cl)cn2)cc1 (centres unmarked) [Compound 41, 6-chloro-2-(5-chloropyrimidin-2-yl)-7-fluoro-1-(4-methylphenyl)-2,3,4,9-tetrahydro-1H-pyrido[3,4-b]indole] | 0.0196
Cc1ccc(C2c3[nH]c4cc(F)c(Cl)cc4c3CCN2c2nccc(C)n2)cc1 (centres unmarked) [Compound 42, 6-chloro-7-fluoro-1-(4-methylphenyl)-2-(4-methylpyrimidin-2-yl)-2,3,4,9-tetrahydro-1H-pyrido[3,4-b]indole] | 0.0203
Cc1ccc(C2c3[nH]c4cc(F)c(Cl)cc4c3CCN2c2nccc(Cl)n2)cc1 (centres unmarked) [Compound 43, 6-chloro-2-(4-chloropyrimidin-2-yl)-7-fluoro-1-(4-methylphenyl)-2,3,4,9-tetrahydro-1H-pyrido[3,4-b]indole] | 0.006

Structure (SMILES) | IC50 [µM]
Cc1ccc(C2c3[nH]c4cc(F)c(Cl)cc4c3CCN2c2nccc(C#N)n2)cc1 (centres unmarked) [Compound 44, 2-[6-chloro-7-fluoro-1-(4-methylphenyl)-1,3,4,9-tetrahydro-2H-pyrido[3,4-b]indol-2-yl]pyrimidine-4-carbonitrile] | 0.0147
Fc1cc2[nH]c3c(c2cc1Cl)CCN(c1ncccn1)C3c1ccc(C2CC2)cc1 (centres unmarked) [Compound 45, 6-chloro-1-(4-cyclopropylphenyl)-7-fluoro-2-(pyrimidin-2-yl)-2,3,4,9-tetrahydro-1H-pyrido[3,4-b]indole] | 0.0322
Cc1cc(Cl)nc(N2CCc3c([nH]c4cc(F)c(Cl)cc34)C2c2ccc(F)cc2)n1 (centres unmarked) [Compound 46, 6-chloro-2-(4-chloro-6-methylpyrimidin-2-yl)-7-fluoro-1-(4-fluorophenyl)-2,3,4,9-tetrahydro-1H-pyrido[3,4-b]indole] | 0.0065
Fc1cnc(N2CCc3c([nH]c4cc(F)c(Cl)cc34)C2c2ccc(F)nc2)nc1 (centres unmarked) [Compound 47, 6-chloro-7-fluoro-1-(6-fluoropyridin-3-yl)-2-(5-fluoropyrimidin-2-yl)-2,3,4,9-tetrahydro-1H-pyrido[3,4-b]indole] | 0.14
Oc1ccc(C2c3[nH]c4cc(F)c(Cl)cc4c3CCN2c2ncc(F)cn2)cn1 (centres unmarked) [Compound 48, 5-[6-chloro-7-fluoro-2-(5-fluoropyrimidin-2-yl)-2,3,4,9-tetrahydro-1H-pyrido[3,4-b]indol-1-yl]pyridin-2-ol] | 0.222
Fc1ccc(C2c3[nH]c4ccc(Cl)c(F)c4c3CCN2c2ncc(Cl)cn2)cc1 (centres unmarked) [Compound 49, 6-chloro-2-(5-chloropyrimidin-2-yl)-5-fluoro-1-(4-fluorophenyl)-2,3,4,9-tetrahydro-1H-pyrido[3,4-b]indole] | 0.0212
CC(C)c1ccc(C2c3[nH]c4cc(F)c(Cl)cc4c3CCN2c2ncc(F)cn2)cc1 (centres unmarked) [Compound 50, 6-chloro-7-fluoro-2-(5-fluoropyrimidin-2-yl)-1-[4-(propan-2-yl)phenyl]-2,3,4,9-tetrahydro-1H-pyrido[3,4-b]indole] | 0.0247
Fc1ccc(C2c3[nH]c4ccc(Cl)c(F)c4c3CCN2c2ncc(F)cn2)cc1 (centres unmarked) [Compound 51, 6-chloro-5-fluoro-1-(4-fluorophenyl)-2-(5-fluoropyrimidin-2-yl)-2,3,4,9-tetrahydro-1H-pyrido[3,4-b]indole] | 0.0216
N#Cc1ccc(C2c3[nH]c4ccc(Cl)c(F)c4c3CCN2c2ncc(Cl)cn2)cc1 (centres unmarked) [Compound 52, 4-[6-chloro-2-(5-chloropyrimidin-2-yl)-5-fluoro-2,3,4,9-tetrahydro-1H-pyrido[3,4-b]indol-1-yl]benzonitrile] | 0.0257
CC(C)c1ccc(C2c3[nH]c4cc(F)c(Cl)cc4c3CCN2c2nccc(Cl)n2)cc1 (centres unmarked) [Compound 53, 6-chloro-2-(4-chloropyrimidin-2-yl)-7-fluoro-1-[4-(propan-2-yl)phenyl]-2,3,4,9-tetrahydro-1H-pyrido[3,4-b]indole] | 0.0077
CC(C)c1ccc(C2c3[nH]c4cc(F)c(Cl)cc4c3CCN2c2nccc(C#N)n2)cc1 (centres unmarked) [Compound 55, 2-{6-chloro-7-fluoro-1-[4-(propan-2-yl)phenyl]-1,3,4,9-tetrahydro-2H-pyrido[3,4-b]indol-2-yl}pyrimidine-4-carbonitrile] | 0.0131
N#Cc1ccc(C2c3[nH]c4ccc(Cl)c(F)c4c3CCN2c2ncc(F)cn2)cc1 (centres unmarked) [Compound 56, 4-[6-chloro-5-fluoro-2-(5-fluoropyrimidin-2-yl)-2,3,4,9-tetrahydro-1H-pyrido[3,4-b]indol-1-yl]benzonitrile] | 0.0257
CC(C)c1ccc(C2c3[nH]c4cc(F)c(Cl)cc4c3CCN2c2ncc(Cl)cn2)cc1 (centres unmarked) [Compound 57, 6-chloro-2-(5-chloropyrimidin-2-yl)-7-fluoro-1-[4-(propan-2-yl)phenyl]-2,3,4,9-tetrahydro-1H-pyrido[3,4-b]indole] | 0.0199
Fc1cnc(N2CCc3c([nH]c4cc(F)c(Cl)cc34)C2c2cccc(F)c2)nc1 (centres unmarked) [Compound 58, 6-chloro-7-fluoro-1-(3-fluorophenyl)-2-(5-fluoropyrimidin-2-yl)-2,3,4,9-tetrahydro-1H-pyrido[3,4-b]indole] | 0.0898
N#Cc1ccc(C2c3[nH]c4cc(F)c(Cl)cc4c3CCN2c2ncc(Cl)cn2)cc1 (centres unmarked) [Compound 59, 4-[6-chloro-2-(5-chloropyrimidin-2-yl)-7-fluoro-2,3,4,9-tetrahydro-1H-pyrido[3,4-b]indol-1-yl]benzonitrile] | 0.0387
Fc1ccc(C2c3[nH]c4ccc(Cl)c(F)c4c3CCN2c2nccc(C(F)(F)F)n2)cc1 (centres unmarked) [Compound 60, 6-chloro-5-fluoro-1-(4-fluorophenyl)-2-[4-(trifluoromethyl)pyrimidin-2-yl]-2,3,4,9-tetrahydro-1H-pyrido[3,4-b]indole] | 0.0093
